One may read the IC50 as the concentration that gives 50% inhibition.

A value given as a limit tells only on which side of the number the result lay.

The assay deals with T1, human Arginine Vasopressin Receptor 1a (AVPR1a) (Homo sapiens, UniProt P37288).
T1 construct: expressed in transfected cells; host or cells: CHO (CHO-AVPR1a, kept under G418 selection)
T1 sequence (P37288 whole entry): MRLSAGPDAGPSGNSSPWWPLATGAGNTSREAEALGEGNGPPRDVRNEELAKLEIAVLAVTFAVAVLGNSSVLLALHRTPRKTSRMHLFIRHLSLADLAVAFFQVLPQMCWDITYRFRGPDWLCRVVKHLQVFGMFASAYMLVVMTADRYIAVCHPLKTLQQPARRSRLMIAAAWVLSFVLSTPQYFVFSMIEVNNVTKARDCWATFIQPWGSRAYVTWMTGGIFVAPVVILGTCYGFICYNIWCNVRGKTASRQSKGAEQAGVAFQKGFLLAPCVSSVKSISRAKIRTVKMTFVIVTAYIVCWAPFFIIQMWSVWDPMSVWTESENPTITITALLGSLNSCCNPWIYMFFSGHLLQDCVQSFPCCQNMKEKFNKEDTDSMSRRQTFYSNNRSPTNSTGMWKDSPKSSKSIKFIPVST
The experiment in a line: Vasopressin V1a receptor antagonist assay (FLIPR calcium, CHO-AVPR1a cells). It counts as cell-based. The procedure: The purpose of this assay was to determine the inhibitory effect of synthesized compounds on the Vasopressin V1a receptor. The assay was performed in Chinese Hamster Ovary (CHO) cells expressing the human Arginine Vasopressin Receptor 1a (AVPR1a). Arginine Vasopressin (AVP) evokes an increase in intracellular calcium in CHO-AVPR1a cells which is measured in a fluorescence assay on the FLIPR^TETRA using calcium sensitive dyes. Test compounds were assessed for their ability to affect the magnitude of the response to AVP, with antagonists showing a concentration-dependent reduction in the AVP-mediated fluorescence. Compounds were tested in duplicate in a 10-point, 1:3 dilution series starting at a nominal concentration of 3 μM in the assay.
CHO-AVPR1a cells were maintained in routine culture in T175 Flasks at 37° C., 5% CO2. The growth medium consists of Ham's F12 media supplemented with 10% v/v fetal bovine serum, 1× non-essential amino acids, and 0.4 mg/ml Geneticin G418.
On day one, cells were harvested from T175 flasks when they are 80-90% confluent by first washing the cell monolayer with PBS and then dissociated using trypsin 0.05%/EDTA (3 mL for a T175 Flask). The flasks were incubated at room temperature until the cells detached. To the cell suspension, 10 ml of growth media was added and the cell density determined using the Vi-Cell automated cell counter. The cells were spun at 1000 rpm for 3 minutes, then the supernatant was carefully removed and discarded. The cell pellet was re-suspended at 6.0e^5 cells/ml in growth media. 25 μL of cells in growth media was dispensed into each well (15,000 cells per well) of a poly-D-lysine coated black, clear bottomed, 384-well plate. The plates were incubated at 37° C., 5% CO2 overnight.
At the start of each assay day, the potency of AVP was assessed and an EC80 concentration determined for subsequent compound profiling. Assays were performed using a two-step addition protocol on the FLIPR^TETRA; first addition of 5 μl of control or test compound at 10× final in assay buffer with 15 min incubation at 37° C., 5% CO2 followed by 10 μl of AVP at 6× final concentration in assay buffer. Changes in fluorescence were monitored for 3 min after both additions on the FLIPR^TETRA using 470-495 nm excitation and 515-575 nm emission wavelengths. The assay buffer consisted of HBSS (+Ca/+Mg) supplemented with 20 mM HEPES, and for the preparation of the AVP agonist only, 0.1% w/v bovine serum albumin. The assay was initiated by the removal of growth media from the cells and replacement with 45 μl of Calcium-6 dye (Molecular Devices) prepared at 1× in assay buffer. Cells were loaded with dye for 60-90 min at 37° C., 5% CO2 before initiation of the FLIPR^TETRA protocol. […] For compound profiling, test compounds were first serially diluted in DMSO (10-point curve, 1:3 dilutions) then diluted 33.3-fold in assay buffer prior to addition to the dye loaded cells on the FLIPR^TETRA. At the end of the incubation period, 10 μl of AVP in assay buffer containing 0.1% BSA was added at the previously determined EC80 concentration.
In-plate controls for the assay included balovaptan and PF-184563 concentration-response curves as reference V1a antagonists, and an AVP concentration-response curve to confirm the reproducibility of the EC80 used for the compound challenge.
Consider `CCC1COc2cc(Cl)ccc2N1C(=O)N1CC2(C1)CN(c1ccc(F)cn1)C2` (single isomer, unassigned) [1-55-A], for which the IC50 lay in the range of 500 to 1000 nM. With `CC1COc2cc(Cl)ccc2N1C(=O)N1CC2(C1)CN(c1cnccn1)C2` (single isomer, unassigned) [1-58-A] the figure was ≥ 1000 nM. The figure for `COc1ccc2c(c1)OCC(C)N2C(=O)N1CC2(C1)CN(c1ccc(F)cn1)C2` (single isomer, unassigned) [1-59-A] is ≥ 1000 nM.

Take `CC1COc2cc(Cl)ccc2N1C(=O)N1CC2(C1)CN(c1ccccn1)C2` (single isomer, unassigned) [1-60-A]: the IC50 was 500 to 1000 nM. In the case of `CC1COc2cc(F)ccc2N1C(=O)N1CC2(C1)CN(c1cccnn1)C2` (single isomer, unassigned) [1-62-A], the IC50 is ≥ 1000 nM. Consider `CC1COc2cc(F)ccc2N1C(=O)N1CC2(C1)CN(c1cccnn1)C2` (single isomer, unassigned) [1-62-B], for which the IC50 was < 100 nM.

Turning to `CC1COc2cc(F)ccc2N1C(=O)N1CC2(C1)CN(c1cnccn1)C2` (single isomer, unassigned) [1-65-A], the IC50 is ≥ 1000 nM. The figure for `CC1COc2cc(F)ccc2N1C(=O)N1CC2(C1)CN(c1ccccn1)C2` (single isomer, unassigned) [1-66-A] is ≥ 1000 nM; for `CC1COc2cc(F)ccc2N1C(=O)N1CC2(C1)CN(c1ncccc1F)C2` (single isomer, unassigned) [1-67-B] it is ≥ 1000 nM. `CC1COc2cc(Cl)ccc2N1C(=O)N1CC2(C1)CN(c1ncccn1)C2` (single isomer, unassigned) [1-83-A]: the IC50 is 100 to 500 nM. The figure for `CC1COc2cc(F)ccc2N1C(=O)N1CC2(C1)CN(c1noc3ccccc13)C2` (single isomer, unassigned) [4-3-A] is 100 to 500 nM; for `CC1CN(C(=O)N2CC3(C2)CN(c2ccc(F)cn2)C3)c2ccc(Cl)cc2O1` (single isomer, unassigned) [9-3-B] it is < 100 nM; for `CC1CN(C(=O)N2CC3(C2)CN(c2ccc(F)cn2)C3)c2ccc(F)cc2O1` (single isomer, unassigned) [9-4-A] it is 100 to 500 nM. With `O=C(N1CC2(C1)CN(c1ncccc1F)C2)N1CCC(O)c2cc(Cl)ccc21` (single isomer, unassigned) [13-4-A] the figure was < 100 nM. As to `O=C(N1CC2(C1)CN(c1ccc(F)cn1)C2)N1CCC(O)c2c1ccc(Cl)c2F` (single isomer, unassigned) [13-5-A], the IC50 is < 100 nM. The figure for `O=C(N1CC2(C1)CN(c1ccc(F)cn1)C2)N1CCC(O)c2c1ccc(Cl)c2F` (single isomer, unassigned) [13-5-B] is < 100 nM; for `CC1COc2cc(Cl)ccc2N1C(=O)N1CC2(C1)CN(c1ncc(F)cn1)C2` (single isomer, unassigned) [18-2-A] it is < 100 nM. In the case of `CC1COc2cc(Cl)ccc2N1C(=O)N1CC2(C1)CN(c1noc3cccnc13)C2` (single isomer, unassigned) [18-3-A], the IC50 is ≥ 1000 nM. The figure for `CC1COc2cc(F)ccc2N1C(=O)N1CC2(C1)CN(c1ncc(F)cn1)C2` (single isomer, unassigned) [18-4-A] is ≥ 1000 nM. On to `CCc1ccnc(N2CC3(CN(C(=O)N4c5ccc(Cl)cc5OCC4C)C3)C2)n1` (single isomer, unassigned) [18-5-A], for which the IC50 is ≥ 1000 nM. On to `CCc1ccnc(N2CC3(CN(C(=O)N4c5ccc(Cl)cc5OCC4C)C3)C2)n1` (single isomer, unassigned) [18-5-B], for which the IC50 was < 100 nM. With `CC1COc2cc(F)c(F)cc2N1C(=O)N1CC2(C1)CN(c1ncccn1)C2` (single isomer, unassigned) [19-1-A] the figure was ≥ 1000 nM.

In the case of `CC1COc2cc(Cl)c(F)cc2N1C(=O)N1CC2(C1)CN(c1ncccn1)C2` (single isomer, unassigned) [19-2-A], the IC50 lay in the range of 100 to 500 nM.

Take `CC1COc2cc(F)c(F)cc2N1C(=O)N1CC2(C1)CN(c1ccc(F)cn1)C2` (single isomer, unassigned) [19-5-A]: the IC50 lay in the range of 100 to 500 nM. Regarding `CC1COc2cc(Cl)ccc2N1C(=O)N1CC2(C1)CN(c1cccnc1)C2` (single isomer, unassigned) [20-1-A], the IC50 was ≥ 1000 nM. The figure for `CC1COc2cc(F)ccc2N1C(=O)N1CC2(C1)CN(c1cc(C#N)ccn1)C2` (single isomer, unassigned) [20-3-A] is ≥ 1000 nM; for `Cc1ccnc(N2CC3(CN(C(=O)N4c5ccc(F)cc5OCC4C)C3)C2)c1` (single isomer, unassigned) [20-4-A] it is ≥ 1000 nM; for `Cc1cnc(N2CC3(CN(C(=O)N4c5ccc(Cl)cc5OCC4C)C3)C2)cn1` (single isomer, unassigned) [20-5-A] it is < 100 nM. For `COc1ccnc(N2CC3(CN(C(=O)N4c5ccc(Cl)cc5OCC4C)C3)C2)c1` (single isomer, unassigned) [20-8-A], the IC50 fell in the range of 100 to 500 nM. Turning to `COc1ccnc(N2CC3(CN(C(=O)N4c5ccc(Cl)cc5OCC4C)C3)C2)n1` (single isomer, unassigned) [20-9-A], the IC50 was ≥ 1000 nM. The figure for `Cc1nccnc1N1CC2(CN(C(=O)N3c4ccc(Cl)cc4OCC3C)C2)C1` (single isomer, unassigned) [20-10-B] is ≥ 1000 nM; for `Cc1ccnc(N2CC3(CN(C(=O)N4c5ccc(Cl)cc5OCC4C)C3)C2)c1` (single isomer, unassigned) [20-11-A] it is 500 to 1000 nM; for `Cc1ccnc(N2CC3(CN(C(=O)N4c5ccc(Cl)cc5OCC4C)C3)C2)c1` (single isomer, unassigned) [20-11-B] it is < 100 nM.

`Cc1ccnc(N2CC3(CN(C(=O)N4c5ccc(Cl)cc5OCC4C)C3)C2)n1` (single isomer, unassigned) [20-12-A]: the IC50 is ≥ 1000 nM. Turning to `CC1COc2cc(Cl)ccc2N1C(=O)N1CC2(C1)CN(c1cc(=O)n(C)cn1)C2` (single isomer, unassigned) [20-14-A], the IC50 was ≥ 1000 nM. With `CC1COc2cc(Cl)ccc2N1C(=O)N1CC2(C1)CN(c1nn(C)c3ncccc13)C2` (single isomer, unassigned) [20-15-A] the figure was 100 to 500 nM.

On to `CC1COc2cc(Cl)ccc2N1C(=O)N1CC2(C1)CN(c1nccc(C#N)n1)C2` (single isomer, unassigned) [20-16-A], for which the concentration for half-maximal inhibition (IC50) was ≥ 1000 nM. The figure for `CC1COc2cc(Cl)ccc2N1C(=O)N1CC2(C1)CN(c1nccc(C#N)n1)C2` (single isomer, unassigned) [20-16-B] is < 100 nM; for `COc1cccc(N2CC3(CN(C(=O)N4CCOc5cc(Cl)ccc54)C3)C2)n1` [1-2] it is < 100 nM; for `COc1cccnc1N1CC2(CN(C(=O)N3CCOc4cc(Cl)ccc43)C2)C1` [1-6] it is < 100 nM.

`O=C(N1CC2(C1)CN(c1cncc(F)c1)C2)N1CCOc2cc(Cl)ccc21` [1-7]: the IC50 was in the range of 100 to 500 nM. Consider `COc1ncccc1N1CC2(CN(C(=O)N3CCOc4cc(Cl)ccc43)C2)C1` [1-8], for which the IC50 lay within 100 to 500 nM.

In the case of `Cc1ncccc1N1CC2(CN(C(=O)N3CCOc4cc(Cl)ccc43)C2)C1` [1-9], the IC50 was in the range of 500 to 1000 nM. Take `Cn1ccc(N2CC3(CN(C(=O)N4CCOc5cc(Cl)ccc54)C3)C2)n1` [1-10]: the concentration for half-maximal inhibition (IC50) lay in the range of 100 to 500 nM. Turning to `Cn1cc(N2CC3(CN(C(=O)N4CCOc5cc(Cl)ccc54)C3)C2)cn1` [1-11], the IC50 was ≥ 1000 nM. As to `O=C(N1CC2(C1)CN(c1ccc(OC(F)F)cn1)C2)N1CCOc2cc(Cl)ccc21` [1-12], the IC50 was ≥ 1000 nM. `Cc1ccc(N2CC3(CN(C(=O)N4CCOc5cc(Cl)ccc54)C3)C2)nc1` [1-13]: the IC50 was < 100 nM. Regarding `N#Cc1ccc(N2CC3(CN(C(=O)N4CCOc5cc(Cl)ccc54)C3)C2)nc1` [1-16], the IC50 lay in the range of 100 to 500 nM. In the case of `O=C(N1CC2(C1)CN(c1cncnc1)C2)N1CCOc2cc(Cl)ccc21` [1-17], the IC50 lay in the range of 100 to 500 nM. On to `O=C(N1CC2(C1)CN(c1cnc(Br)cn1)C2)N1CCOc2cc(Cl)ccc21` [1-19], for which the IC50 was < 100 nM.

Consider `Cc1nccnc1N1CC2(CN(C(=O)N3CCOc4cc(Cl)ccc43)C2)C1` [1-21], for which the IC50 was < 100 nM.

The values are drawn from patent US12152038B2, “Vasopressin receptor antagonists and products and methods related thereto” (Neumora Therapeutics, Inc., priority 2017, dated 2024).
